Test results taken from BindingDB's records for doi:10.1021/jm500629e (Mcgill University, 2014).

Target: T1, Farnesyl pyrophosphate synthase (Homo sapiens, UniProt P14324)
T1 sequence (P14324 whole entry): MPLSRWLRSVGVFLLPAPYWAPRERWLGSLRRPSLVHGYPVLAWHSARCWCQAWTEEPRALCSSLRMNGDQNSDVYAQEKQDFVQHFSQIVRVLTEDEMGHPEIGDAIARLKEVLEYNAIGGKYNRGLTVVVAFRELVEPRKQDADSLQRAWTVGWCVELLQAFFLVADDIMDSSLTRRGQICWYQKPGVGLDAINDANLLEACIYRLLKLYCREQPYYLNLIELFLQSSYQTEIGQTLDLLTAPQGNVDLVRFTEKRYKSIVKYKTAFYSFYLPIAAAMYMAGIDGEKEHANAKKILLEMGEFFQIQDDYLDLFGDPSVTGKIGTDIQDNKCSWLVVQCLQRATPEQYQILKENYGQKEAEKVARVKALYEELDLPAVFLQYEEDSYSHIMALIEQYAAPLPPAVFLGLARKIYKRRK
Test: Inhibition of FPPS (unknown origin)

Row | IC50 [nM] | SMILES
1 | 200 | Cc1ccc(-c2cc3c(CCP(=O)(O)O)ncnc3s2)cc1
2 | 3300 | Cc1ccc(-c2cc3c(NCP(=O)(O)O)ncnc3s2)cc1Cl
3 | 200 | O=P(O)(O)C(Nc1ncnc2sc(-c3ccc(OC4CC4)cc3)cc12)P(=O)(O)O
4 | 4500 | Cc1ccc(-c2cc3c(NCP(=O)(O)O)ncnc3s2)cc1
5 | 1200 | Cc1ccc(-c2cc3c(NC(c4ccccc4)P(=O)(O)O)ncnc3s2)cc1Cl (stereo not given)
6 | > 20000 | Cc1ccc(-c2cc3c(NCC(=O)O)ncnc3s2)cc1
7 | 200 | Cc1ccc(-c2cc3c(NCCP(=O)(O)O)ncnc3s2)cc1
8 | 200 | Cc1ccc(-c2cc3c(NC(P(=O)(O)O)P(=O)(O)O)ncnc3s2)cc1
9 | 200 | O=P(O)(O)C(Cc1cccnc1)P(=O)(O)O [(1-phosphono-2-pyridin-3-yl-ethyl)-phosphonic acid]

Row | SMILES | IC50 [nM]
10 | O=P(O)(O)CCc1cccnc1 | 200
